From patent US9133139B2, “Fluoroalkyl-1,4-benzodiazepinone compounds” (BRISTOL-MYERS SQUIBB COMPANY, priority 2012, dated 2015)

What was measured:
[1] = Human metabolic stability half-life assay (liver microsomes); type: in vitro ADME; details: pH 7.4, human liver microsomes, CYP-mediated (NADPH-dependent), 0.5 μM compound, 45-minute time course, read-out: HLM (t1/2, min)
Experimental: Metabolic Stability Half-Life Panel
Result Interpretation Guideline
Incubation with Liver Microsomes
Sample Analysis—Instrumentation

TALL-1 = experiment: Human Tumor Xenograft Models in Mice, TALL-1; type: in vivo; details: for Antitumor Activity in TALL-1 (LCK), QD dosing: oral, TALL-1 xenograft in NOD-SCID mice; for antitumor activity with oral administration (PO): Human Tumor Xenograft Models in mice
Experimental: Human Tumor Xenograft Models in Mice
Mice were fed food and water ad libitum.
Preclinical Chemotherapy Trials
When death occurred, the day of death was recorded.
In Vivo Antitumor Activity

human Notch 1 = experiment: Notch-CBF1 Transactivation Assay (luciferase reporter, transfected HeLa cells), Notch 1; type: cell-based; details: read-out: Notch 1 (IC50); HeLa cells transfected with truncated Notch 1 and CBF1 luciferase reporter, 18 hours incubation
Excerpt: Notch-CBF1 Transactivation Assay
The Notch-CBF1 (C-promoter binding factor I) cell based transactivation assay is based on the ability of the released Notch intracellular domain fragments (NICDs) to function as transcription factors in conjunction with CBF1 and other nuclear factors. Luciferase assays were used to measure the antagonism of Notch-CBF1 transcriptional activity. HeLa cervical cancer cells are transiently co-transfected with pCDNA3.1/Hygro plasmids containing truncated Notch 1, Notch 2, Notch 3, or Notch 4 receptors and a PGL3 luciferase reporter vector containing 4 copies of CBF1 binding site. The cells were then tested for Notch-CBF1 activity in the absence or presence of test compounds. HeLa cells, maintained in DMEM (high glucose with HEPES), 1× glutamine/penicillin/streptomycin and 10% Fetal Bovine serum, were transiently transfected in a T175 Flask (4.5×10^6 cells/flask) using the Monster Transfection Kit (Minis #MIR2906) according to manufacturers specifications. Table 2 denotes respective DNA quantity for the transfections.
Assay media (5 μL) containing test compounds in final concentrations ranging from 5 μM to 8.4×10^−5 μM (3 fold serial dilutions) were added to the cells and the cell plates were then incubated for 18 hours at 37° C. and 5% CO2. Control wells contained DMSO vehicle (total counts) or 0.5 μM of an in-house small molecule inhibitor (background counts). Duplicates were used for each sample. Luciferase activity was measured after a 20-minute incubation with 50 μl STEADY-GLO® luciferase reagents according to manufacturer's specifications (Promega, Cat. #E2550) and analyzed by Envision plate reader (PerkinElmer, Boston, Mass.).
The antagonist effect of compounds was expressed as 100×[1−(average sample−average background)/(average total−average background)] where sample is the luciferase activity in the presence of test compound, background is equal to the luciferase activity in the presence of the small molecule inhibitor control and the total is signal induced in DMSO wells.

SMILES | half-life at 0.5 μM [1] [min] | other results
CCC[C@H](C(N)=O)[C@@H](CC(C)C)C(=O)N[C@H]1N=C(c2ccccc2)c2ccccc2N(C)C1=O [Comparative Compound 37, reference compound] | ≤ 8 | 
C=CC[C@H](C(N)=O)[C@@H](CC(C)C)C(=O)N[C@H]1N=C(c2ccccc2)c2cc(Cl)ccc2N(C)C1=O [Comparative Compound 38, reference compound] | ≤ 8 | 
CCCC[C@H](C(N)=O)[C@@H](CC(C)C)C(=O)N[C@H]1N=C(c2ccc(Cl)cc2)c2ccccc2N(C)C1=O [Comparative Compound 39, reference compound] | ≤ 8 | 
C=CC[C@H](C(N)=O)[C@@H](CC(C)C)C(=O)N[C@H]1N=C(c2ccccc2)c2ccccc2N(CCC)C1=O [Comparative Compound 40, reference compound] | ≤ 8 | 
CN1C(=O)[C@@H](NC(=O)[C@H](CCC(F)(F)F)[C@@H](C(N)=O)c2ccccc2)N=C(c2ccccc2)c2ccccc21 [Example 1, (2R,3R)—N-((3S)-1-Methyl-2-oxo-5-phenyl-2,3-dihydro-1H-1,4-benzodiazepin-3-yl)-3-phenyl-2-(3,3,3-trifluoropropyl)succinamide] |  | Antitumor Activity in TALL-1 (LCK), QD dosing (TALL-1; Dose 24 (unit not given)): 3.5 LCK; antitumor activity with oral administration (PO) (TALL-1): showed antitumor activity
Cc1nocc1[C@H](C(N)=O)[C@@H](CCC(F)(F)F)C(=O)N[C@H]1N=C(c2ccccc2)c2ccccc2N(C)C1=O [Example 6, (2R,3R)—N1-((S)-1-Methyl-2-oxo-5-phenyl-2,3-dihydro-1H-benzo[e][1,4]diazepin-3-yl)-3-(3-methylisoxazol-4-yl)-2-(3,3,3-trifluoropropyl)succinamide] | ≥ 30 | 
Cc1nocc1[C@H](C(N)=O)[C@@H](CCC(F)(F)F)C(=O)N[C@H]1N=C(c2ccccc2)c2ccccc2NC1=O [Example 9] | ≥ 30 | 
Cc1nocc1[C@H](C(N)=O)[C@@H](CCC(F)(F)F)C(=O)N[C@H]1N=C(c2ccccc2)c2ccccc2N(c2ccccn2)C1=O [Example 11, (2R,3R)-3-(3-Methyl-4-isoxazolyl)-N-((3S)-2-oxo-5-phenyl-1-(2-pyridinyl)-2,3-dihydro-1H-1,4-benzodiazepin-3-yl)-2-(3,3,3-trifluoropropyl)succinamide] | ≥ 30 | IC50 (human Notch 1): 12.9 nM
NC(=O)[C@@H](c1ccccc1)[C@@H](CCC(F)(F)F)C(=O)N[C@H]1N=C(c2ccccc2)c2ccccc2N(c2ccccn2)C1=O [Example 12, (2R,3R)—N-((3S)-2-Oxo-5-phenyl-1-(2-pyridinyl)-2,3-dihydro-1H-1,4-benzodiazepin-3-yl)-3-phenyl-2-(3,3,3-trifluoropropyl)succinamide] |  | IC50 (human Notch 1): 13.6 nM
Cc1nocc1[C@H](C(N)=O)[C@@H](CCC(F)(F)F)C(=O)N[C@H]1N=C(c2ccccc2)c2cc3c(cc2NC1=O)OCO3 [Example 13, (2R,3R)-3-(3-Methyl-4-isoxazolyl)-N-((7S)-6-oxo-9-phenyl-6,7-dihydro-5H-[1,3]dioxolo[4,5-h][1,4]benzodiazepin-7-yl)-2-(3,3,3-trifluoropropyl)succinamide] | ≥ 30 | 
COc1ccc(N2C(=O)[C@@H](NC(=O)[C@H](CCC(F)(F)F)[C@@H](C(N)=O)c3conc3C)N=C(c3ccccc3)c3ccccc32)nc1 [Example 14, (2R,3R)—N-((3S)-1-(5-Methoxy-2-pyridinyl)-2-oxo-5-phenyl-2,3-dihydro-1H-1,4-benzodiazepin-3-yl)-3-(3-methyl-4-isoxazolyl)-2-(3,3,3-trifluoropropyl)succinamide] | ≥ 30 | 
COc1ccc(N2C(=O)[C@@H](NC(=O)[C@H](CCC(F)(F)F)[C@@H](C(N)=O)c3ccccc3)N=C(c3ccccc3)c3ccccc32)nc1 [Example 15, (2R,3R)—N-((3S)-1-(5-Methoxy-2-pyridinyl)-2-oxo-5-phenyl-2,3-dihydro-1H-1,4-benzodiazepin-3-yl)-3-phenyl-2-(3,3,3-trifluoropropyl)succinamide] |  | IC50 (human Notch 1): 17.8 nM
COc1cccc(N2C(=O)[C@@H](NC(=O)[C@H](CCC(F)(F)F)[C@@H](C(N)=O)c3ccccc3)N=C(c3ccccc3)c3ccccc32)n1 [Example 16, (2R,3R)—N-((3S)-1-(6-Methoxy-2-pyridinyl)-2-oxo-5-phenyl-2,3-dihydro-1H-1,4-benzodiazepin-3-yl)-3-phenyl-2-(3,3,3-trifluoropropyl)succinamide] |  | IC50 (human Notch 1): 16.4 nM
Cc1nocc1[C@H](C(N)=O)[C@@H](CCC(F)(F)F)C(=O)N[C@H]1N=C(c2ccccc2)c2cccc(Cl)c2NC1=O [Example 17, (2R,3R)—N1-((S)-9-Chloro-2-oxo-5-phenyl-2,3-dihydro-1H-benzo[e][1,4]diazepin-3-yl)-3-(3-methylisoxazol-4-yl)-2-(3,3,3-trifluoropropyl)succinamide] | ≥ 30 | 
COc1cccc2c1NC(=O)[C@@H](NC(=O)[C@H](CCC(F)(F)F)[C@@H](C(N)=O)c1conc1C)N=C2c1ccccc1 [Example 20, (2R,3R)—N1-((S)-9-Methoxy-2-oxo-5-phenyl-2,3-dihydro-1H-benzo[e][1,4]diazepin-3-yl)-3-(3-methylisoxazol-4-yl)-2-(3,3,3-trifluoropropyl)succinamide] | ≥ 30 | 
COc1cccc2c1NC(=O)[C@@H](NC(=O)[C@H](CCC(F)(F)F)[C@@H](C(N)=O)c1ccccc1)N=C2c1ccccc1 [Example 21, (2R,3R)—N1-((S)-9-Methoxy-2-oxo-5-phenyl-2,3-dihydro-1H-benzo[e][1,4]diazepin-3-yl)-3-phenyl-2-(3,3,3-trifluoropropyl)succinamide] | ≥ 30 | Antitumor Activity in TALL-1 (LCK), QD dosing (TALL-1; Dose 40 (unit not given)): 2.7 LCK; antitumor activity with oral administration (PO) (TALL-1): showed antitumor activity
Cc1cccc2c1NC(=O)[C@@H](NC(=O)[C@H](CCC(F)(F)F)[C@@H](C(N)=O)c1ccccc1)N=C2c1ccc(F)cc1 [Example 27, (2R,3R)—N1-((S)-5-(4-Fluorophenyl)-9-methyl-2-oxo-2,3-dihydro-1H-benzo[e][1,4]diazepin-3-yl)-3-phenyl-2-(3,3,3-trifluoropropyl)succinamide] | ≥ 30 | IC50 (human Notch 1): 15.3 nM
Cc1cccc2c1NC(=O)[C@@H](NC(=O)[C@H](CCC(F)(F)F)[C@@H](C(N)=O)c1conc1C)N=C2c1cccc(C(F)(F)F)c1 [Example 28, (2R,3R)—N1-((S)-9-Methyl-2-oxo-5-(3-(trifluoromethyl)phenyl)-2,3-dihydro-1H-benzo[e][1,4]diazepin-3-yl)-3-(3-methylisoxazol-4-yl)-2-(3,3,3-trifluoropropyl)succinamide] | ≥ 30 | 
Cc1cccc2c1NC(=O)[C@@H](NC(=O)[C@H](CCC(F)(F)F)[C@@H](C(N)=O)c1ccccc1)N=C2c1cccc(C(F)(F)F)c1 [Example 29, (2R,3R)—N1-((S)-9-Methyl-2-oxo-5-(3-(trifluoromethyl)phenyl)-2,3-dihydro-1H-benzo[e][1,4]diazepin-3-yl)-3-phenyl-2-(3,3,3-trifluoropropyl)succinamide] | ≥ 30 | 
Cc1cccc2c1NC(=O)[C@@H](NC(=O)[C@H](CCC(F)(F)F)[C@@H](C(N)=O)c1conc1C)N=C2c1cccc(Cl)c1 [Example 32, (2R,3R)—N1-((S)-5-(3-Chlorophenyl)-9-methyl-2-oxo-2,3-dihydro-1H-benzo[e][1,4]diazepin-3-yl)-3-(3-methylisoxazol-4-yl)-2-(3,3,3-trifluoropropyl)succinamide] | ≥ 30 | 
Cc1cccc2c1NC(=O)[C@@H](NC(=O)[C@H](CCC(F)(F)F)[C@@H](C(N)=O)c1ccccc1)N=C2c1cccc(C(F)F)c1 [Example 34, (2R,3R)—N1-((S)-5-(3-(Difluoromethyl)phenyl)-9-methyl-2-oxo-2,3-dihydro-1H-benzo[e][1,4]diazepin-3-yl)-3-phenyl-2-(3,3,3-trifluoropropyl)succinamide] | ≥ 30 | 
NC(=O)[C@@H](c1ccccc1)[C@@H](CCC(F)(F)F)C(=O)N[C@H]1N=C(c2cccc(F)c2)c2cccc(OC3CC3)c2NC1=O [Example 35, (2R,3R)—N1-((S)-9-Cyclopropoxy-5-(3-fluorophenyl)-2-oxo-2,3-dihydro-1H-benzo[e][1,4]diazepin-3-yl)-3-phenyl-2-(3,3,3-trifluoropropyl)succinamide] | ≥ 30 | 
COc1cccc2c1NC(=O)[C@@H](NC(=O)[C@H](CCC(F)(F)F)[C@@H](C(N)=O)c1ccc(Cl)cc1)N=C2c1ccccc1 [Example 36, (2R,3R)-3-(4-Chlorophenyl)-N1-((S)-9-methoxy-2-oxo-5-phenyl-2,3-dihydro-1H-benzo[e][1,4]diazepin-3-yl)-2-(3,3,3-trifluoropropyl)succinamide] | ≥ 30 | 
